Active and inactive are the calls of the source. The rule behind the calls is not given here.
Test system: CCRIS mutagenicity, Ames/micronucleus/aberration tests
Assay: CCRIS mutagenicity studies

Question: What does the source list for `Oc1ccccc1O`?
Answer: mutagenic call (End Point: IN VITRO CHROMOSOMAL ABERRATIONS, Test System: CHINESE HAMSTER V79 CELLS, Metabolic Activation: NONE): active; positive at ph 7.4 and 8.0; mutagenic call (End Point: IN VITRO MICRONUCLEUS, Test System: CHINESE HAMSTER LUNG (CHL)/IU CELLS, Metabolic Activation: NONE): active; positive; mutagenic call (Test System: AMES SALMONELLA TYPHIMURIUM, Strain/Indicator: TA97, Metabolic Activation: NONE, Method: PREINCUBATION): inactive; negative; mutagenic call (Test System: AMES SALMONELLA TYPHIMURIUM, Strain/Indicator: TA97, Metabolic Activation: RAT, LIVER, S-9, AROCLOR 1254, Method: PREINCUBATION): inactive; negative; mutagenic call (Test System: AMES SALMONELLA TYPHIMURIUM, Strain/Indicator: TA97, Metabolic Activation: RAT, LIVER, S-9, PHENOBARBITAL, Method: PREINCUBATION): inactive; negative; mutagenic call (Test System: AMES SALMONELLA TYPHIMURIUM, Strain/Indicator: TA98, Metabolic Activation: HAMSTER, LIVER, S-9, AROCLOR 1254, Method: PREINCUBATION): inactive; negative; mutagenic call (Test System: AMES SALMONELLA TYPHIMURIUM, Strain/Indicator: TA98, Metabolic Activation: NONE): inactive; negative; mutagenic call (Test System: AMES SALMONELLA TYPHIMURIUM, Strain/Indicator: TA98, Metabolic Activation: NONE, Method: PREINCUBATION): inactive; negative; mutagenic call (Test System: AMES SALMONELLA TYPHIMURIUM, Strain/Indicator: TA98, Metabolic Activation: RAT, LIVER, S-9, AROCLOR 1254, Method: PREINCUBATION): inactive; negative; mutagenic call (Test System: AMES SALMONELLA TYPHIMURIUM, Strain/Indicator: TA98, Metabolic Activation: RAT, LIVER, S-9, PHENOBARBITAL, Method: PREINCUBATION): inactive; negative; mutagenic call (Test System: AMES SALMONELLA TYPHIMURIUM, Strain/Indicator: TA98, Metabolic Activation: S-9): inactive; negative; mutagenic call (Test System: AMES SALMONELLA TYPHIMURIUM, Strain/Indicator: TA100, Metabolic Activation: HAMSTER, LIVER, S-9, AROCLOR 1254, Method: PREINCUBATION): inactive; negative; mutagenic call (Test System: AMES SALMONELLA TYPHIMURIUM, Strain/Indicator: TA100, Metabolic Activation: NONE, Method: FLUCTUATION TEST): active; positive; mutagenic call (Test System: AMES SALMONELLA TYPHIMURIUM, Strain/Indicator: TA100, Metabolic Activation: NONE, Method: PREINCUBATION): inactive; negative; mutagenic call (Test System: AMES SALMONELLA TYPHIMURIUM, Strain/Indicator: TA100, Metabolic Activation: RAT, LIVER, S-9, AROCLOR 1254, Method: PREINCUBATION): inactive; negative; mutagenic call (Test System: AMES SALMONELLA TYPHIMURIUM, Strain/Indicator: TA100, Metabolic Activation: RAT, LIVER, S-9, PCB, Method: FLUCTUATION TEST): active; positive; mutagenic call (Test System: AMES SALMONELLA TYPHIMURIUM, Strain/Indicator: TA100, Metabolic Activation: RAT, LIVER, S-9, PHENOBARBITAL, Method: PREINCUBATION): inactive; negative; mutagenic call (Test System: AMES SALMONELLA TYPHIMURIUM, Strain/Indicator: TA102, Metabolic Activation: NONE, Method: PREINCUBATION): inactive; negative; mutagenic call (Test System: AMES SALMONELLA TYPHIMURIUM, Strain/Indicator: TA102, Metabolic Activation: RAT, LIVER, S-9, AROCLOR 1254, Method: PREINCUBATION): inactive; negative; mutagenic call (Test System: AMES SALMONELLA TYPHIMURIUM, Strain/Indicator: TA104, Metabolic Activation: NONE, Method: PREINCUBATION): inactive; negative; mutagenic call (Test System: AMES SALMONELLA TYPHIMURIUM, Strain/Indicator: TA104, Metabolic Activation: RAT, LIVER, S-9, AROCLOR 1254, Method: PREINCUBATION): inactive; negative; mutagenic call (Test System: AMES SALMONELLA TYPHIMURIUM, Strain/Indicator: TA1535, Metabolic Activation: HAMSTER, LIVER, S-9, AROCLOR 1254, Method: PREINCUBATION): inactive; negative; mutagenic call (Test System: AMES SALMONELLA TYPHIMURIUM, Strain/Indicator: TA1535, Metabolic Activation: NONE, Method: PREINCUBATION): inactive; negative; mutagenic call (Test System: AMES SALMONELLA TYPHIMURIUM, Strain/Indicator: TA1535, Metabolic Activation: RAT, LIVER, S-9, AROCLOR 1254, Method: PREINCUBATION): inactive; negative; mutagenic call (Test System: AMES SALMONELLA TYPHIMURIUM, Strain/Indicator: TA1537, Metabolic Activation: HAMSTER, LIVER, S-9, AROCLOR 1254, Method: PREINCUBATION): inactive; negative; mutagenic call (Test System: AMES SALMONELLA TYPHIMURIUM, Strain/Indicator: TA1537, Metabolic Activation: NONE, Method: PREINCUBATION): inactive; negative; mutagenic call (Test System: AMES SALMONELLA TYPHIMURIUM, Strain/Indicator: TA1537, Metabolic Activation: RAT, LIVER, S-9, AROCLOR 1254, Method: PREINCUBATION): inactive; negative; mutagenic call (Test System: Ames Salmonella typhimurium, Strain/Indicator: TA98, Metabolic Activation: None, Method: Preincubation): inactive; negative; mutagenic call (Test System: Ames Salmonella typhimurium, Strain/Indicator: TA98, Metabolic Activation: Rat, Liver, S9, Sodium phenobarbital and 5,6-benzoflavone, Method: Preincubation): inactive; negative; mutagenic call (Test System: Ames Salmonella typhimurium, Strain/Indicator: TA100, Metabolic Activation: None, Method: Preincubation): inactive; negative; mutagenic call (Test System: Ames Salmonella typhimurium, Strain/Indicator: TA100, Metabolic Activation: Rat, Liver, S9, Sodium phenobarbital and 5,6-benzoflavone, Method: Preincubation): inactive; negative; mutagenic call (Test System: Ames Salmonella typhimurium, Strain/Indicator: TA1535, Metabolic Activation: None, Method: Preincubation): inactive; negative; mutagenic call (Test System: Ames Salmonella typhimurium, Strain/Indicator: TA1535, Metabolic Activation: Rat, Liver, S9, Sodium phenobarbital and 5,6-benzoflavone, Method: Preincubation): inactive; negative; mutagenic call (Test System: Ames Salmonella typhimurium, Strain/Indicator: TA1537, Metabolic Activation: None, Method: Preincubation): inactive; negative; mutagenic call (Test System: Ames Salmonella typhimurium, Strain/Indicator: TA1537, Metabolic Activation: Rat, Liver, S9, Sodium phenobarbital and 5,6-benzoflavone, Method: Preincubation): inactive; negative; mutagenic call (Test System: CHINESE HAMSTER V-79, Strain/Indicator: V-79/6-THIOGUANINE, Metabolic Activation: NONE): active; positive; mutagenic call (Test System: E. coli, Strain/Indicator: WP2uvrA/pKM101, Metabolic Activation: None, Method: Preincubation): inactive; negative; mutagenic call (Test System: E. coli, Strain/Indicator: WP2uvrA/pKM101, Metabolic Activation: Rat, Liver, S9, Sodium phenobarbital and 5,6-benzoflavone, Method: Preincubation): inactive; negative; mutagenic call (Test System: E. coli, Strain/Indicator: Wp2uvrA/pKM101, Metabolic Activation: None, Method: Preincubation): inactive; negative; mutagenic call (Test System: E. coli, Strain/Indicator: Wp2uvrA/pKM101, Metabolic Activation: Rat, Liver, S9, Sodium phenobarbital and 5,6-benzoflavone, Method: Preincubation): inactive; negative; mutagenic call (Test System: MOUSE LYMPHOMA, Strain/Indicator: L5178Y (TK+/TK-), Metabolic Activation: NONE, Method: SUSPENSION/PLATE): active; positive; mutagenic call (Test System: UDS SYRIAN HAMSTER EMBRYO (SHE) CELLS, Strain/Indicator: THY INCORP, Metabolic Activation: NONE, Method: LIQUID SCINTILLATION COUNTING): active; positive
